Measured values taken from ChEMBL document CHEMBL1201862, “PubChem BioAssay data set” (2004).
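96-well plates; 48 h exposure; 5 concentrations. Endpoints by linear interpolation between flanking doses. Not reached: highest tested concentration assigned. Abbreviation: GI50, concentration required for 50% inhibition of growth.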 Calls of active or inactive are those of the source. Rule as the data show it: active = GI50 up to about 1.1 µM and inactive = higher.

What was measured:
Test in all cases: inhibition of tumour cell growth, NCI panel, 48 h
786-0 = test system: 786-0
A498 = test system: A498
ACHN = test system: ACHN
BT-549 = test system: BT-549
CAKI-1 = test system: CAKI-1
DU-145 = test system: DU-145
EKVX = test system: EKVX
HCT-15 = test system: HCT-15
HOP-62 = test system: HOP-62
HOP-92 = test system: HOP-92
IGROV-1 = test system: IGROV-1
KM12 = test system: KM12
NCI-H226 = test system: NCI-H226
NCI-H23 = test system: NCI-H23
NCI-H460 = test system: NCI-H460
NCI-H522 = test system: NCI-H522
SF-268 = test system: SF-268
SF-539 = test system: SF-539
SK-MEL-2 = test system: SK-MEL-2
UO-31 = test system: UO-31

Cc1cc2c(cc1Cl)Sc1nnc(Nc3ccccc3)n1S2(=O)=O
GI50 (786-0): 4.75 µM (inactive) | GI50 (A498): 12.7 µM (inactive) | GI50 (ACHN): 12.2 µM (inactive) | GI50 (BT-549): 7.78 µM (inactive) | GI50 (CAKI-1): 11.1 µM (inactive) | GI50 (DU-145): 18.2 µM (inactive) | GI50 (EKVX): 11.7 µM (inactive) | GI50 (HCT-15): 5.07 µM | GI50 (HOP-62): 3.64 µM (inactive) | GI50 (HOP-92): 5.57 µM (inactive) | GI50 (IGROV-1): 10 µM (inactive) | GI50 (KM12): 12 µM (inactive) | GI50 (NCI-H226): 3.08 µM (inactive) | GI50 (NCI-H23): 3.59 µM (inactive) | GI50 (NCI-H460): 8.36 µM (inactive) | GI50 (NCI-H522): 2.93 µM (inactive) | GI50 (SF-268): 2.32 µM (inactive) | GI50 (SF-539): 2.39 µM (inactive) | GI50 (SK-MEL-2): 4.84 µM (inactive) | GI50 (UO-31): 13.4 µM (inactive)

CCOC(=O)c1nc2cc(F)c(N3CCOCC3)cc2[nH]c1=O
GI50 (786-0): > 100 µM (inactive) | GI50 (A498): > 100 µM (inactive) | GI50 (ACHN): > 100 µM (inactive) | GI50 (BT-549): > 100 µM (inactive) | GI50 (CAKI-1): > 100 µM (inactive) | GI50 (DU-145): > 100 µM (inactive) | GI50 (EKVX): 13.9 µM (inactive) | GI50 (HCT-15): > 100 µM | GI50 (HOP-62): > 100 µM (inactive) | GI50 (HOP-92): > 100 µM (inactive) | GI50 (IGROV-1): 80.9 µM (inactive) | GI50 (KM12): > 100 µM (inactive) | GI50 (NCI-H226): 90.8 µM (inactive) | GI50 (NCI-H23): > 100 µM (inactive) | GI50 (NCI-H460): > 100 µM (inactive) | GI50 (NCI-H522): 76 µM (inactive) | GI50 (SF-268): > 100 µM (inactive) | GI50 (SF-539): > 100 µM (inactive) | GI50 (SK-MEL-2): > 100 µM (inactive) | GI50 (UO-31): 65.3 µM (inactive)

O=C1CC(c2ccccc2)NCCCCN2CC(CN1)C(C(O)c1ccccc1)C2=O (stereo not given)
GI50 (786-0): > 100 µM (inactive) | GI50 (A498): > 100 µM (inactive) | GI50 (ACHN): > 100 µM (inactive) | GI50 (BT-549): > 100 µM (inactive) | GI50 (CAKI-1): > 100 µM (inactive) | GI50 (DU-145): > 100 µM (inactive) | GI50 (EKVX): > 100 µM (inactive) | GI50 (HCT-15): > 100 µM | GI50 (HOP-62): > 100 µM (inactive) | GI50 (HOP-92): > 100 µM (inactive) | GI50 (IGROV-1): > 100 µM (inactive) | GI50 (KM12): > 100 µM (inactive) | GI50 (NCI-H226): > 100 µM (inactive) | GI50 (NCI-H23): > 100 µM (inactive) | GI50 (NCI-H460): > 100 µM (inactive) | GI50 (NCI-H522): > 100 µM (inactive) | GI50 (SF-268): > 100 µM (inactive) | GI50 (SF-539): > 100 µM (inactive) | GI50 (SK-MEL-2): > 100 µM (inactive) | GI50 (UO-31): > 100 µM (inactive)

COc1ccc(C)cc1Nc1nnc(-c2ccccc2N)s1
GI50 (786-0): 51.2 µM (inactive) | GI50 (A498): 74.8 µM (inactive) | GI50 (ACHN): 51.8 µM (inactive) | GI50 (BT-549): 62.7 µM (inactive) | GI50 (CAKI-1): 28.4 µM (inactive) | GI50 (DU-145): > 100 µM (inactive) | GI50 (EKVX): 24.7 µM (inactive) | GI50 (HCT-15): 45.2 µM | GI50 (HOP-62): 44.7 µM (inactive) | GI50 (HOP-92): 21.3 µM (inactive) | GI50 (IGROV-1): 18 µM (inactive) | GI50 (KM12): 28.4 µM (inactive) | GI50 (NCI-H226): 43 µM (inactive) | GI50 (NCI-H23): 34.3 µM (inactive) | GI50 (NCI-H460): 31 µM (inactive) | GI50 (NCI-H522): 20.2 µM (inactive) | GI50 (SF-268): > 100 µM (inactive) | GI50 (SF-539): 82.8 µM (inactive) | GI50 (SK-MEL-2): 19.5 µM (inactive) | GI50 (UO-31): 36.8 µM (inactive)

c1cc2c(cc1C1=NCCN1)c1cc(C3=NCCN3)ccc1n2CC1CCCCC1
GI50 (786-0): 19.4 µM (inactive) | GI50 (A498): > 100 µM (inactive) | GI50 (ACHN): > 100 µM (inactive) | GI50 (BT-549): 18.5 µM (inactive) | GI50 (CAKI-1): > 100 µM (inactive) | GI50 (DU-145): 18.1 µM (inactive) | GI50 (EKVX): 14.1 µM (inactive) | GI50 (HCT-15): > 100 µM | GI50 (HOP-62): 23.8 µM (inactive) | GI50 (HOP-92): 8 µM (inactive) | GI50 (IGROV-1): 18.2 µM (inactive) | GI50 (KM12): 8.73 µM (inactive) | GI50 (NCI-H226): 12.3 µM (inactive) | GI50 (NCI-H23): 17.1 µM (inactive) | GI50 (NCI-H460): 14.7 µM (inactive) | GI50 (NCI-H522): 4.94 µM (inactive) | GI50 (SF-268): 4.31 µM (inactive) | GI50 (SF-539): 3.65 µM (inactive) | GI50 (SK-MEL-2): 15.7 µM (inactive) | GI50 (UO-31): 81.3 µM (inactive)

Cc1ccc2c3c1O[C@H]1c4[nH]c5ccccc5c4C[C@@]4(O)[C@@H](C2)N(CC2CC2)CC[C@]314
GI50 (786-0): 13.8 µM (inactive) | GI50 (A498): 17.1 µM (inactive) | GI50 (ACHN): 16.6 µM (inactive) | GI50 (BT-549): 18.3 µM (inactive) | GI50 (CAKI-1): 16.6 µM (inactive) | GI50 (DU-145): 16.1 µM (inactive) | GI50 (EKVX): 17.4 µM (inactive) | GI50 (HCT-15): 12.7 µM | GI50 (HOP-62): 19.2 µM (inactive) | GI50 (HOP-92): 13 µM (inactive) | GI50 (IGROV-1): 17.4 µM (inactive) | GI50 (KM12): 17 µM (inactive) | GI50 (NCI-H226): 14.9 µM (inactive) | GI50 (NCI-H23): 19.7 µM (inactive) | GI50 (NCI-H460): 15.2 µM (inactive) | GI50 (NCI-H522): 15 µM (inactive) | GI50 (SF-268): 13.6 µM (inactive) | GI50 (SF-539): 16.5 µM (inactive) | GI50 (SK-MEL-2): 17.1 µM (inactive) | GI50 (UO-31): 13.4 µM (inactive)
